# Experimental data taken from ChEMBL document CHEMBL5150060 (J Med Chem, 2022).
# Activity calls are given as the source filed them. The rule behind the calls is not given here.
# Tests used:
# [1] = Toxicity in C57BL/6 mouse assessed as change in spleen weight at 5 to 10 mg/kg, ip administered 5 days per week for 2 weeks by H and E staining based assay; assay type: organism-based; settings: in vivo, 336 h, dose 5-10 mg/kg
# Mus musculus [2] = assay: Immuno-modulatory activity in C57BL/6 mouse assessed as increase in proportion of CD8+ cells in spleen at 10 mg/kg, ip administered 5 days per week for 2 weeks by flow cytometry analysis; assay type: functional, organism-based
# [3] = target: T1, Histone deacetylase 8 (Homo sapiens) (UniProt Q9BY41); assay: Inhibition of HDAC8 in human Jurkat T cells assessed as upregulation of IL-7R expression at 10 uM after 6 to 12 hrs by RT-qPCR analysis; assay type: cell-based; settings: time 6-12 hrs
# T1 sequence (whole entry): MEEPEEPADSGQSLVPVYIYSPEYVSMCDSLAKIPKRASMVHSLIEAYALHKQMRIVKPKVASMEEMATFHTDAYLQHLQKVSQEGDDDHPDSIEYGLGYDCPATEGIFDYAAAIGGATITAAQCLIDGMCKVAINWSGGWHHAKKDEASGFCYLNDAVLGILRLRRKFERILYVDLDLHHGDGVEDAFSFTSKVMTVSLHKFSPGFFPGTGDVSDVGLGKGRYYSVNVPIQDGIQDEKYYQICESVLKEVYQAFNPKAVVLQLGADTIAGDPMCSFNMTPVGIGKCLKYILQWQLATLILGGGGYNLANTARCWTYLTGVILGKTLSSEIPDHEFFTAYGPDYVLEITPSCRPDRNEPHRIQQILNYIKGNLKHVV
# Histone deacetylase 4 = Histone deacetylase 4 (Homo sapiens, UniProt P56524); assay: Inhibition of HDAC4 (unknown origin)
# Chain of Histone deacetylase 4 (P56524 whole entry): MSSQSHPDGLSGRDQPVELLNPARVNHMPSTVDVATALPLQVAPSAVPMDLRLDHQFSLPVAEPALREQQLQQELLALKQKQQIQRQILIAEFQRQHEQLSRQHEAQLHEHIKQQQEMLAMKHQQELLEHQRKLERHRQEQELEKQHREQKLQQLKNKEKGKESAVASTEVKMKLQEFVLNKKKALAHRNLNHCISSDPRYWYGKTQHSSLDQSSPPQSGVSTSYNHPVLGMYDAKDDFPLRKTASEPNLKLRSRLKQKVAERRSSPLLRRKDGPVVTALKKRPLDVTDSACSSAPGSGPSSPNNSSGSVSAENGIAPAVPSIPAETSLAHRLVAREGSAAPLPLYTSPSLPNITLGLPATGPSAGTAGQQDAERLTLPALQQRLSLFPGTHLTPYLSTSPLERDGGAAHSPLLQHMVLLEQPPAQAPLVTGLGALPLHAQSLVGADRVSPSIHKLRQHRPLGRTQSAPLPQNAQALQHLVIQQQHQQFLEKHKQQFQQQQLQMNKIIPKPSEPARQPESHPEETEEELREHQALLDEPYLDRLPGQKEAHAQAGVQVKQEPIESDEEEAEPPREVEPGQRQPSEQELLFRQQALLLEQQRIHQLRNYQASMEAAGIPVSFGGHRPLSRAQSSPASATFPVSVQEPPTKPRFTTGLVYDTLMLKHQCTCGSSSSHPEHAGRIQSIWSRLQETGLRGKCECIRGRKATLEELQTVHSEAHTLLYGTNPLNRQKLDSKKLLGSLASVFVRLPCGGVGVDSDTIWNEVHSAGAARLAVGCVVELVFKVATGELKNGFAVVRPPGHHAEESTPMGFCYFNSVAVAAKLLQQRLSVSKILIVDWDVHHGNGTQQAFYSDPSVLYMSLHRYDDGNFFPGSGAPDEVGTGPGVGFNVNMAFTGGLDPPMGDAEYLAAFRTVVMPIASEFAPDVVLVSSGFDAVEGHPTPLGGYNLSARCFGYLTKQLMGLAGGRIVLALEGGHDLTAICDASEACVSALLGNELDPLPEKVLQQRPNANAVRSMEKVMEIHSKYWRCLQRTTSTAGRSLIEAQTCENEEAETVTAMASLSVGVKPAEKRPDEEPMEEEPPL
# [4] = target: T1, Histone deacetylase 8 (Homo sapiens); assay: Inhibition of HDAC8 in human Jurkat T cells assessed as upregulation of […] expression at 10 uM after 6 to 12 hrs by RT-qPCR analysis; assay type: cell-based; settings: time 6-12 hrs
# Histone deacetylase 3 = Histone deacetylase 3 (Homo sapiens, UniProt O15379); assay: Inhibition of recombinant human HDAC3 using p53 (Ac-RHKK(Acetyl)-AMC) as substrate preincubated for 5 mins followed by substrate addition and measured after 30 mins by fluorescence based analysis
# Chain of Histone deacetylase 3 (O15379 whole entry): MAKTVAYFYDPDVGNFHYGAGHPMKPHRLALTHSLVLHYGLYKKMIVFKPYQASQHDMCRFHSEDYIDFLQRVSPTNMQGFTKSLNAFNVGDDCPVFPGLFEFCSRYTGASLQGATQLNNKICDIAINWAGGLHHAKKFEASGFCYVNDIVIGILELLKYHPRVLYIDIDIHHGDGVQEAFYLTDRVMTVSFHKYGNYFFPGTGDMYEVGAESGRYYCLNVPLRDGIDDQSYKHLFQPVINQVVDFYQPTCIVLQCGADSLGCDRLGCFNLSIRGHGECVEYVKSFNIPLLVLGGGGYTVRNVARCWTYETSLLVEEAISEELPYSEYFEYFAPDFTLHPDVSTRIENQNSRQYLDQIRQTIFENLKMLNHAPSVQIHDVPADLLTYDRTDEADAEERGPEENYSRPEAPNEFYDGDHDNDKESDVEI
# [5] = target: T1, Histone deacetylase 8 (Homo sapiens); assay: Inhibition of HDAC8 in human Jurkat T cells assessed as upregulation of BCL6 expression at 10 uM after 6 to 12 hrs by RT-qPCR analysis; assay type: cell-based; settings: time 6-12 hrs
# [6] = target: T1, Histone deacetylase 8 (Homo sapiens); assay: Inhibition of HDAC8 in human Jurkat T cells assessed as upregulation of IL23 expression after 6 hrs by RT-qPCR analysis; assay type: cell-based; settings: dose 0.1-10 µM, DDE = dose-dependent effect
# [7] = target: T1, Histone deacetylase 8 (Homo sapiens); assay: Inhibition of HDAC8 in human Jurkat T cells assessed as increase in H3K27 acetylation at 10 uM after 6 hrs by Western blot analysis; assay type: cell-based
# [8] = target: T1, Histone deacetylase 8 (Homo sapiens); assay: Inhibition of HDAC8 in human Jurkat T cells assessed as upregulation of GATA3 expression after 6 hrs by RT-qPCR analysis; assay type: cell-based; settings: dose 0.1-10 µM, DDE = dose-dependent effect
# Mus musculus [9] = assay: Immuno-modulatory activity in C57BL/6 mouse assessed as increase in IL2 expression in CD4+ cells at 10 mg/kg, ip administered 5 days per week for 2 weeks by RT-qPCR analysis; assay type: functional, organism-based
# [10] = target: T1, Histone deacetylase 8 (Homo sapiens); assay: Inhibition of HDAC8 in human Jurkat T cells assessed as upregulation of IL-7R expression after 6 hrs by RT-qPCR analysis; assay type: cell-based; settings: dose 0.1-10 µM, DDE = dose-dependent effect
# [11] = target: T1, Histone deacetylase 8 (Homo sapiens); assay: Inhibition of HDAC8 in human Jurkat T cells assessed as upregulation of IL10 expression after 6 hrs by RT-qPCR analysis; assay type: cell-based; settings: dose 0.1-10 µM, DDE = dose-dependent effect
# [12] = target: T1, Histone deacetylase 8 (Homo sapiens); assay: Inhibition of HDAC8 in human Jurkat T cells assessed as upregulation of IL10 expression at 10 uM after 6 to 12 hrs by RT-qPCR analysis; assay type: cell-based; settings: time 6-12 hrs
# Mus musculus [13] = assay: Immuno-modulatory activity in C57BL/6 mouse assessed as increase in proportion of CD3+ cells in spleen at 10 mg/kg, ip administered 5 days per week for 2 weeks by flow cytometry analysis; assay type: functional, organism-based
# [14] = target: T1, Histone deacetylase 8 (Homo sapiens); assay: Inhibition of HDAC8 in human Jurkat T cells assessed as upregulation of IL23 expression at 10 uM after 6 to 12 hrs by RT-qPCR analysis; assay type: cell-based; settings: time 6-12 hrs
# [15] = target: T1, Histone deacetylase 8 (Homo sapiens); assay: Inhibition of HDAC8 in human Jurkat T cells assessed as upregulation of KLRG expression at 10 uM after 6 to 12 hrs by RT-qPCR analysis; assay type: cell-based; settings: time 6-12 hrs
# [16] = target: T1, Histone deacetylase 8 (Homo sapiens); assay: Inhibition of HDAC8 in human Jurkat T cells assessed as upregulation of EOMES expression after 6 hrs by RT-qPCR analysis; assay type: cell-based; settings: dose 0.1-10 µM, DDE = dose-dependent effect
# [17] = Stability of compound in DMEM/DMSO/acetonitrile at pH 7.4 measured after 48 hrs by HPLC analysis; assay type: physicochemical; settings: read-out: Stability
# [18] = Toxicity in C57BL/6 mouse assessed as change in lung weight at 5 to 10 mg/kg, ip administered 5 days per week for 2 weeks by H and E staining based assay; assay type: organism-based; settings: in vivo, 336 h, dose 5-10 mg/kg
smiles,measurement,setting,value
CCCCCCNNC(=O)c1ccc(-c2ccc(CNC(C)=O)cc2)cc1,Activity,[1],Non-Toxic
same,Activity,Mus musculus [2],Active
same,inhibition,[3],Active
same,IC50,Histone deacetylase 4,> 20 µM
same,inhibition,[4],Active
same,IC50,Histone deacetylase 3,> 20 µM
same,inhibition,[5],Active
same,inhibition,[6],Dde
same,inhibition,[7],Active
same,inhibition,[8],Dde
same,Activity,Mus musculus [9],Active
same,inhibition,[10],Dde
same,inhibition,[11],Dde
same,inhibition,[12],Active
same,Activity,Mus musculus [13],Active
same,inhibition,[14],Active
same,inhibition,[15],Active
same,inhibition,[16],Dde
same,remaining at 48 h,[17],104%
same,Activity,[18],Non-Toxic
